Among the test systems are SK-MEL-5; SN12C; RXF 393; BT-549; MDA-N; OVCAR-8; SNB-19; SK-MEL-2; NCI/ADR-RES; Hs-578T; IGROV-1; SW-620; MOLT-4; HCC 2998; PC-3; HT-29; M14; U-251.
What all share (experiment): inhibition of tumour cell growth, NCI panel, 48 h

Results on 11 compounds are retold here after ChEMBL document CHEMBL1201862, “PubChem BioAssay data set” (2004).

Several values for one entry are separate records, joined by “and”; a condition that tells them apart may be missing. Equal entries are not always repeated.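 Five compound concentrations were applied to cells in 96-well plates for 48 hours; endpoints were derived by simple linear interpolation of the resulting dose-response curve. GI50 = concentration required for 50% inhibition of growth.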 Activity calls are given as the source filed them. Rule as the data show it: active = GI50 up to about 1.1 µM and inactive = higher. Some results are limits rather than exact numbers.

On to `COc1ccc(-c2nc(SCC(=O)N/N=C/c3ccc([N+](=O)[O-])cc3)[nH]c2-c2ccc(OC)cc2)cc1`, for which the GI50 in the experiment with SK-MEL-5 is 6.27 µM (inactive); in the experiment with SN12C, 16.6 µM (inactive); in the experiment on RXF 393, 11.4 µM (inactive); in the experiment with BT-549 it was 19.1 µM (inactive); with MDA-N it was 3.16 µM (inactive); in the experiment on OVCAR-8 it was 17.7 µM (inactive). Also, the GI50 with SNB-19 is 24.4 µM (inactive); with SK-MEL-2, 6.47 µM (inactive); with NCI/ADR-RES, 19.1 µM (inactive); with Hs-578T, 14.4 µM (inactive); in the experiment with IGROV-1, 10.8 µM (inactive); with SW-620, 12.6 µM (inactive). Further, the GI50 in the experiment with MOLT-4 was 7.66 µM (inactive); in the experiment on HCC 2998, 12.1 µM (inactive); in the experiment on PC-3, 6.49 µM (inactive); in the experiment with HT-29 it was 8.41 µM (inactive); in the experiment with M14, 12.2 µM (inactive); in the experiment on U-251 it was 11.7 µM (inactive).
Turning to `C=CCN1CN(C2CCCCC2)CSC1=S`, the GI50 in the experiment on SK-MEL-5 was 2.68 µM (inactive); in the experiment on SN12C, 6.84 µM (inactive); in the experiment with RXF 393 it was 4.04 µM (inactive); in the experiment on BT-549, 7.69 µM (inactive); in the experiment on MDA-N it was 2.16 µM (inactive); with OVCAR-8 it was 4.06 µM (inactive). Besides, the GI50 with SNB-19 was 16.9 µM (inactive); in the experiment on SK-MEL-2, 8.18 µM (inactive); in the experiment on NCI/ADR-RES, 8.83 µM (inactive); in the experiment with Hs-578T it was 4.94 µM (inactive); in the experiment on IGROV-1 it was 8.34 µM (inactive); in the experiment with SW-620 it was 0.733 µM (active). The GI50 is 1.11 µM (active) in the experiment on MOLT-4; 8.17 µM (inactive) with HCC 2998; 5.02 µM (inactive) in the experiment on PC-3; 3.48 µM (inactive) in the experiment on HT-29; 2.77 µM (inactive) in the experiment on M14; 3.59 µM (inactive) in the experiment with U-251.
As for `N#Cc1cc(C#N)c(N)nc1N`, the GI50 in the experiment with SK-MEL-5, in the experiment with SN12C, in the experiment on RXF 393, with BT-549, in the experiment with MDA-N and in the experiment with OVCAR-8 was > 100 µM (inactive) throughout. Besides, the GI50 in the experiment with SNB-19, in the experiment with SK-MEL-2, in the experiment with NCI/ADR-RES, with Hs-578T, in the experiment on IGROV-1 and in the experiment with SW-620 was > 100 µM (inactive) each time. Further, the GI50 in the experiment on MOLT-4, in the experiment with HCC 2998, in the experiment on PC-3, in the experiment on HT-29, with M14 and in the experiment on U-251 was > 100 µM (inactive) in each case.
Consider `CC(=O)O[C@H]1CC2C(C3CC[C@H](C(C)CCC(N)=O)[C@]31C)[C@H](OC(C)=O)C[C@@H]1CC3(CC[C@]21C)OOC1(CCC(C)CC1)OO3` (some centres not stated), for which the GI50 is 1.74 µM (inactive) and 2.96 µM (inactive) in the experiment on SK-MEL-5; 1.67 µM (inactive) and 2.27 µM (inactive) in the experiment with SN12C; 1.95 µM (inactive) and 2.69 µM (inactive) in the experiment on RXF 393; 2.11 µM (inactive) and 1.72 µM (inactive) in the experiment on BT-549; 1.87 µM (inactive) and 2.07 µM (inactive) with MDA-N; 1.71 µM (inactive) and 1.47 µM (inactive) in the experiment on OVCAR-8. The GI50 was 1.91 µM (inactive) in the experiment with SK-MEL-2; 2.55 µM (inactive) and 1.65 µM (inactive) with NCI/ADR-RES; 2.07 µM (inactive) and 2.38 µM (inactive) with Hs-578T; 3.02 µM (inactive) and 2.11 µM (inactive) in the experiment on SW-620; 1.72 µM (inactive) and 1.47 µM (inactive) in the experiment on MOLT-4; 2.06 µM (inactive) and 2.38 µM (inactive) in the experiment on HCC 2998. Besides, the GI50 was 2.69 µM (inactive) with PC-3; 2.51 µM (inactive) and 1.54 µM (inactive) in the experiment on HT-29; 2.22 µM (inactive) and 2.94 µM (inactive) in the experiment with M14; 1.66 µM (inactive) with U-251.
As to `CCC1CCN=C(Cn2cc(C)c(=O)[nH]c2=O)N1` (configuration not stated), the GI50 with SK-MEL-5, with SN12C, with RXF 393, in the experiment with BT-549, in the experiment on MDA-N and with OVCAR-8 was > 100 µM (inactive) throughout. For the same compound, the GI50 in the experiment with SNB-19, with SK-MEL-2, with NCI/ADR-RES, with Hs-578T, in the experiment on IGROV-1 and in the experiment with SW-620 was > 100 µM (inactive) each time. The GI50 in the experiment on HCC 2998, in the experiment with PC-3, in the experiment on HT-29, with M14 and in the experiment with U-251 was > 100 µM (inactive) each time.
With `Oc1ccc(-c2nc(-c3ccc4ccccc4n3)c(-c3ccc(F)cc3)[nH]2)cc1`, the GI50 in the experiment on SK-MEL-5 is 2.12 µM (inactive); in the experiment on SN12C, 15.3 µM (inactive); in the experiment on RXF 393, 15.2 µM (inactive); in the experiment with BT-549 it was 17.7 µM (inactive); with MDA-N it was 11.9 µM (inactive); in the experiment on OVCAR-8, 12.5 µM (inactive). The GI50 in the experiment with SNB-19 is 17.3 µM (inactive); in the experiment on SK-MEL-2, 14.5 µM (inactive); with NCI/ADR-RES, 4.74 µM (inactive); in the experiment with Hs-578T, 11 µM (inactive); in the experiment with IGROV-1 it was 13 µM (inactive); in the experiment with SW-620, 14.3 µM (inactive). Also, the GI50 was 1.87 µM (inactive) with MOLT-4; 3.94 µM (inactive) in the experiment on HCC 2998; 9.08 µM (inactive) in the experiment on PC-3; 7.55 µM (inactive) in the experiment with HT-29; 11 µM (inactive) in the experiment on M14; 10.6 µM (inactive) in the experiment with U-251.
`CCN(CC)C(=O)N1CN(c2ccccc2)C2(CCN(CCCC3(c4ccc(F)cc4)OCCO3)CC2)C1=O`: the GI50 in the experiment with SK-MEL-5 was 12.9 µM (inactive); with SN12C, 16.9 µM (inactive); in the experiment with RXF 393 it was 14.7 µM (inactive); in the experiment on BT-549, 12.5 µM (inactive); in the experiment with MDA-N it was 19.1 µM (inactive); in the experiment with OVCAR-8, 19.8 µM (inactive). Besides, the GI50 was 30.3 µM (inactive) in the experiment on SNB-19; 14.8 µM (inactive) in the experiment with SK-MEL-2; 23.6 µM (inactive) in the experiment with NCI/ADR-RES; 16.3 µM (inactive) in the experiment on Hs-578T; 18 µM (inactive) with SW-620; 10.4 µM (inactive) with MOLT-4. In addition, the GI50 in the experiment on HCC 2998 is 14.5 µM (inactive); with PC-3, 17.5 µM (inactive); in the experiment on M14, 40.2 µM (inactive); with U-251, 16.6 µM (inactive).
In the case of `Cc1cn(C2CC(O)C(Cn3nncc3Cn3ccc(=O)[nH]c3=O)O2)c(=O)[nH]c1=O` (configuration not stated), the GI50 with SK-MEL-5, in the experiment with SN12C, in the experiment with RXF 393, in the experiment with BT-549, with MDA-N and in the experiment with OVCAR-8 was > 100 µM (inactive) each time. Moreover, the GI50 in the experiment on SNB-19, in the experiment with SK-MEL-2, with NCI/ADR-RES, in the experiment with Hs-578T, in the experiment on IGROV-1 and in the experiment with SW-620 was > 100 µM (inactive) in each case. Besides, the GI50 in the experiment with MOLT-4, with HCC 2998, with PC-3, in the experiment with HT-29, in the experiment on M14 and in the experiment with U-251 was > 100 µM (inactive) each time.
In the case of `CNc1ccc(Cl)cc1C(=O)N1CCC[C@H]1CO`, the GI50 with SN12C, in the experiment on RXF 393, with BT-549, in the experiment with MDA-N, in the experiment on OVCAR-8 and in the experiment with SNB-19 was > 100 µM (inactive) each time. Besides, the GI50 in the experiment on SK-MEL-2 was > 100 µM (inactive); in the experiment with NCI/ADR-RES it was > 100 µM (inactive); in the experiment with Hs-578T it was > 100 µM (inactive); in the experiment with IGROV-1, > 84.7 µM (inactive); in the experiment with SW-620, > 100 µM (inactive); in the experiment with MOLT-4, > 100 µM (inactive). Besides, the GI50 in the experiment with HCC 2998, with PC-3, in the experiment on HT-29, in the experiment with M14 and in the experiment on U-251 was > 100 µM (inactive) in each case.
For the compound `CCN(CC)c1ncnc2c1ncn2CCNC(CO)(CO)CO`, the GI50 in the experiment with SK-MEL-5, in the experiment on SN12C, in the experiment on RXF 393, in the experiment on BT-549, in the experiment on MDA-N and in the experiment on OVCAR-8 was > 100 µM (inactive) throughout. The GI50 in the experiment on SNB-19, in the experiment on SK-MEL-2, with NCI/ADR-RES, in the experiment with Hs-578T, in the experiment on IGROV-1 and in the experiment with SW-620 was > 100 µM (inactive) throughout. The GI50 in the experiment with MOLT-4, in the experiment with HCC 2998, in the experiment on PC-3, in the experiment on HT-29, with M14 and with U-251 was > 100 µM (inactive) in each case.
`O/N=N/c1ccccn1.OCC1OC2OC3C(CO)OC(OC4C(CO)OC(OC5C(CO)OC(OC6C(CO)OC(OC7C(CO)OC(OC1C(O)C2O)C(O)C7O)C(O)C6O)C(O)C5O)C(O)C4O)C(O)C3O` (configuration not stated): the GI50 in the experiment on SK-MEL-5 was 30.5 µM (inactive); in the experiment with SN12C it was > 100 µM (inactive); in the experiment on RXF 393, > 100 µM (inactive); with BT-549, 30.8 µM (inactive); with MDA-N, 19.9 µM (inactive); in the experiment with OVCAR-8, > 100 µM (inactive). The GI50 was 63.7 µM (inactive) with SNB-19; 56.9 µM (inactive) in the experiment with SK-MEL-2; 31.9 µM (inactive) with NCI/ADR-RES; > 100 µM (inactive) in the experiment with Hs-578T; > 100 µM (inactive) in the experiment with IGROV-1; 42.1 µM (inactive) with SW-620. The GI50 in the experiment on MOLT-4 is > 100 µM (inactive); with HCC 2998 it was > 100 µM (inactive); in the experiment with PC-3 it was 65.3 µM (inactive); with HT-29 it was > 100 µM (inactive); in the experiment with M14, 30.8 µM (inactive); in the experiment on U-251 it was > 100 µM (inactive).
